Test results: ChEMBL document CHEMBL1201862, “PubChem BioAssay data set” (2004)
Counter-ions that a name gives are not always drawn. The source made the active and inactive calls.

What was measured:
[1] = target: E3 ubiquitin-protein ligase Mdm2 (Homo sapiens, UniProt Q00987); experiment: MDM2-luc reporter signal enhancers, multi-concentration potency testing, MDM2 ubiquitin-protein ligase inhibitor program, whole-cell format, luminescence detection, 384-well microplate (AID 1394); type: functional;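 note: MDM2 E3 inhibitors raise luminescence so EC50 is for signal enhancement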
Sequence of E3 ubiquitin-protein ligase Mdm2 (Q00987 whole entry): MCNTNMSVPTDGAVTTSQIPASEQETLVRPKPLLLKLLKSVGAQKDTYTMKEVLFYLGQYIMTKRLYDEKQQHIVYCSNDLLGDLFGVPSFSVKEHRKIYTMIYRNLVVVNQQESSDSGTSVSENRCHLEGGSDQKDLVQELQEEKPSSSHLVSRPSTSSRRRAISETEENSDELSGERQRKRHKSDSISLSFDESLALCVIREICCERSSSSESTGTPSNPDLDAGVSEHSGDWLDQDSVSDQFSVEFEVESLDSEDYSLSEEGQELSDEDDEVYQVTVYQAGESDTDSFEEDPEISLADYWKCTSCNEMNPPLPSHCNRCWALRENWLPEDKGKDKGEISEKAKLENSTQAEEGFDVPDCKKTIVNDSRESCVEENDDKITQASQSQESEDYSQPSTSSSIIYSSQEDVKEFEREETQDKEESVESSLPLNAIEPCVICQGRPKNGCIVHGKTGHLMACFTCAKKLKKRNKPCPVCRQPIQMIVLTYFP

[2] = viability loss in Vero cells – cytotoxicity control for Vif-APOBEC3G degradation inhibitor project, dose response (AID 1117358); type: functional; conditions: Vero
[3] = viability inhibitors of stage V gametocytes – luminescence, dose response (AID 1117278); type: functional, cell-based;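 note: gametocytes exposed to compound for 24 hours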
[4] = viability loss in human Jurkat cells – cell-based, luminescence, cytotoxicity control for P. falciparum gametocyte viability project, dose response (AID 1117277); type: functional;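 note: potency reflects loss of cellular ATP meaning fewer viable cells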
[5] = target: Transthyretin (Homo sapiens, UniProt P02766); experiment: Luminescence-based cell-based high throughput dose response assay to identify activators of Transthyretin (TTR) transcription.; type: functional
[6] = target: Oxysterols receptor LXR-beta (Homo sapiens, UniProt P55055); type: functional, cell-based;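 note: Cell-based luminescence dose-response assay of agonist activity at LXR, run as a confirmatory counterscreen to a daf-12 agonist screen; HEK293 cells with Gal4-LXR fusion and GAL4-driven luciferase reporter; agonist potency from rising luciferase signal of a Gal4-LXR reporter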
Sequence of Oxysterols receptor LXR-beta (P55055 whole entry, the tested form may be a part): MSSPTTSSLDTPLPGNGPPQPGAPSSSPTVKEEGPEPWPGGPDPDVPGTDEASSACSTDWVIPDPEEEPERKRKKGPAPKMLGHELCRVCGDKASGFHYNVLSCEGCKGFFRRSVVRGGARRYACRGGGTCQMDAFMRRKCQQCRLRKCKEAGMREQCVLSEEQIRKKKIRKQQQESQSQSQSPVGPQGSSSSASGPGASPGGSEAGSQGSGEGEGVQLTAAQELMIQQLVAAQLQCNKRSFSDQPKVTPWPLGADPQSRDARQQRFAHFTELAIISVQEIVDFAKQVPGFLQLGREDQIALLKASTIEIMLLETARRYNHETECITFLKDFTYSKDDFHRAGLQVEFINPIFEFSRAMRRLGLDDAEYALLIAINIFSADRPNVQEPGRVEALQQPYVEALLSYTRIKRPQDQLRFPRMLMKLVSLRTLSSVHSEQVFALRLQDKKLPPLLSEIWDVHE

[7] = cells
[8] = target: G-protein coupled receptor 183 (Homo sapiens, UniProt P32249); experiment: SAR confirmation of small molecule antagonists of the EBI2 receptor via a luminescent beta-arrestin assa.; type: functional
Sequence of G-protein coupled receptor 183 (P32249 whole entry): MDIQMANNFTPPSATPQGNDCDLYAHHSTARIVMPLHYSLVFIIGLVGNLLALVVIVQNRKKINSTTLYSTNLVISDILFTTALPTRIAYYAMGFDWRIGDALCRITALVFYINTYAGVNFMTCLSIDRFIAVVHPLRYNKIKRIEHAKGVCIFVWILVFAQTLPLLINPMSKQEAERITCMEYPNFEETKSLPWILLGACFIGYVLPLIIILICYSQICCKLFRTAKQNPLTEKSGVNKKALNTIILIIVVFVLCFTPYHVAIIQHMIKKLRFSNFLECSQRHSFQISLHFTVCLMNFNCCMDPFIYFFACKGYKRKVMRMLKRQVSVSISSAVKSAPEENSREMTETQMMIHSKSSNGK

[9] = target: T1, Rac GTPase-activating protein 1 (Homo sapiens, UniProt Q9H0H5); experiment: blockers of MgcRacGAP-driven Rac1 GTP hydrolysis – biochemical, ADP Hunter fluorescence, primary and confirmatory, confirmation (AID 624330); type: functional
T1 sequence (Q9H0H5 whole entry): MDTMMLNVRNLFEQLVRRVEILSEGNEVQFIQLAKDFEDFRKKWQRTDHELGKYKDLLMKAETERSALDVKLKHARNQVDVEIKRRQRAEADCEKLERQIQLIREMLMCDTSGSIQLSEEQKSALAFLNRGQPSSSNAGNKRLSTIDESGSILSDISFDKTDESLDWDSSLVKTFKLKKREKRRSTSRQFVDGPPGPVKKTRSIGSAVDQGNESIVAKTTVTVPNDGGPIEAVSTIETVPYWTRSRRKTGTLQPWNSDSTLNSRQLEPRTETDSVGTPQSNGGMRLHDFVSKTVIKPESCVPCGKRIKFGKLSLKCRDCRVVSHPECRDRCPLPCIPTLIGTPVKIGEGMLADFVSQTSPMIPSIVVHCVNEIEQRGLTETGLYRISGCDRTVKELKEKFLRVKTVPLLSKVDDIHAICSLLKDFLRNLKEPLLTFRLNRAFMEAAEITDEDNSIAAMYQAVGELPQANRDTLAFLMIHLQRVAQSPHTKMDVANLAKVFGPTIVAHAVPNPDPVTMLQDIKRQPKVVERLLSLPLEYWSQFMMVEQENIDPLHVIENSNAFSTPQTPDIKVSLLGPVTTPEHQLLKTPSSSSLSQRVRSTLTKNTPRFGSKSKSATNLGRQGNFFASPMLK

[10] = target: T2, Fibrinogen beta chain (Homo sapiens, UniProt P02675); experiment: Fluorescence polarization-based biochemical high throughput dose response assay to identify inhibitors that disrupt the binding of a cyclic peptide (Tn6) to the fibrin proteolytic product D-Dimer and fragment E complex [DD(E )].
T2 sequence (P02675 whole entry, the tested form may be a part): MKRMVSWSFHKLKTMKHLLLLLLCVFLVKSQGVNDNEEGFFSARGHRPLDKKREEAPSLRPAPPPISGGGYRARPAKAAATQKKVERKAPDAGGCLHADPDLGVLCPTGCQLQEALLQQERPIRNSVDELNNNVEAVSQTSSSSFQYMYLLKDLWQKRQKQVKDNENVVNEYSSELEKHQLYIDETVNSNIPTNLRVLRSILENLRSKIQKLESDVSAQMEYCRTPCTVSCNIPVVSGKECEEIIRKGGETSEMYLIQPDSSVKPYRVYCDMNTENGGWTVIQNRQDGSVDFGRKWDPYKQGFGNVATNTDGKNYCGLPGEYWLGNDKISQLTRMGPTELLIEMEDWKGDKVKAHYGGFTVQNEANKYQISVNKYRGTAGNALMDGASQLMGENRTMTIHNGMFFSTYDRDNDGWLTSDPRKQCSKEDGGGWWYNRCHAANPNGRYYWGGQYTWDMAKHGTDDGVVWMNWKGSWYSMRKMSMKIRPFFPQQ

[11] = target: T2, Fibrinogen beta chain; experiment: Fluorescence polarization-based biochemical high throughput dose response assay to identify inhibitors that disrupt the binding of a cyclic peptide (Tn7) to the fibrin proteolytic product D-Dimer and fragment E complex [DD(E )].
[12] = target: Prothrombin (Homo sapiens, UniProt P00734); experiment: Thrombin 1536 HTS Dose Response Confirmation. [Related pubchem assays: 1046 (Thrombin 1536 HTS; hits were confirmed in this assay)]; type: functional
[13] = HIV-1 Vif–A3G interaction blockers – biochemical, TR-FRET, GST-Vif 1-94, biotin-A3G peptide, dose response retest, primary screen (AID 1117319); type: functional;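 note: TR-FRET signal of purified GST-Vif binding a biotinylated A3G peptide; inhibitors lower the FRET signal by blocking Vif and A3G binding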
[14] = viability loss in HEK293T cells – cell-based, ATP luminescence, dry powder, set 3, cytotoxicity control, dose response (AID 743131); type: functional; conditions: HEK293
[15] = viability loss in HepG2 hepatoma cells – cell-based, ATP luminescence, dry powder, set 2, cytotoxicity control, dose response (AID 743129); type: functional
[16] = A549 lung cell viability reduction – CellTiter-Glo luminescence, cherry-pick, cytotoxicity control, dose response (AID 743484); type: functional, cell-based
[17] = target: E3 ubiquitin-protein ligase UHRF1 (Homo sapiens, UniProt Q96T88); experiment: Counterscreen for inhibitors of 5-meCpG-binding domain protein 2 (MBD2): TRFRET-based biochemical high throughput dose response assay to identify inhibitors of binding of ubiquitin-like with PHD and ring finger domains 1 (UHRF1) to methylated oligonucleotide.
[18] = target: T3, DNA repair protein RAD52 homolog (Homo sapiens, UniProt P43351); type: functional, biochemical
T3 sequence (P43351 whole entry): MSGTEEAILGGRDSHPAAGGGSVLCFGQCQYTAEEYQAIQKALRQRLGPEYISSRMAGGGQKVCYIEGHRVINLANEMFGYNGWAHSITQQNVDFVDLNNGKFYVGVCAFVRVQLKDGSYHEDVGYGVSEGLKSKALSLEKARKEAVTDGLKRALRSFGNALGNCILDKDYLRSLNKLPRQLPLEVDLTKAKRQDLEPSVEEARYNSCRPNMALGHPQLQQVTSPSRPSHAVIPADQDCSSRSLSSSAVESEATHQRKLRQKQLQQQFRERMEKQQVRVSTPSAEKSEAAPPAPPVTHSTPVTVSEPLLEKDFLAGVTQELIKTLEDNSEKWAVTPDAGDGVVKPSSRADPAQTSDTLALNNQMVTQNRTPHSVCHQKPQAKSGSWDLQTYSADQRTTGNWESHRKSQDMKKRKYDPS

[19] = IC50 of insulin release inhibition, rat insulinoma INS-1E line, 5 mM glucose, cell-based (AID 1117331); type: functional
[20] = cells; type: functional, cell-based; conditions: INS-1E
[21] = cytotoxicity in MITF-independent A375 cells – cell-based, CellTiter-Glo luminescence, dry powder, set 4, counter-screen for MITF inhibitor project, dose response (AID 624364); type: functional; conditions: A-375;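 note: A375 melanoma cells are MITF independent so this is a counter screen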
[22] = viability loss in MITF-independent A375 cells – cell-based, CellTiter-Glo luminescence, dry powder, set 2, counter-screen for MITF inhibitor project, dose response (AID 624489); type: functional; conditions: A-375;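 note: actives are compounds lowering A375 viability meaning general cytotoxicity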
[23] = target: DNA (cytosine-5)-methyltransferase 1 (Homo sapiens, UniProt P26358); experiment: inhibition of DNA methylation by DNMT1 – biochemical, fluorescent molecular beacon, confirmation (AID 602386); type: functional
Sequence of DNA (cytosine-5)-methyltransferase 1 (P26358 whole entry): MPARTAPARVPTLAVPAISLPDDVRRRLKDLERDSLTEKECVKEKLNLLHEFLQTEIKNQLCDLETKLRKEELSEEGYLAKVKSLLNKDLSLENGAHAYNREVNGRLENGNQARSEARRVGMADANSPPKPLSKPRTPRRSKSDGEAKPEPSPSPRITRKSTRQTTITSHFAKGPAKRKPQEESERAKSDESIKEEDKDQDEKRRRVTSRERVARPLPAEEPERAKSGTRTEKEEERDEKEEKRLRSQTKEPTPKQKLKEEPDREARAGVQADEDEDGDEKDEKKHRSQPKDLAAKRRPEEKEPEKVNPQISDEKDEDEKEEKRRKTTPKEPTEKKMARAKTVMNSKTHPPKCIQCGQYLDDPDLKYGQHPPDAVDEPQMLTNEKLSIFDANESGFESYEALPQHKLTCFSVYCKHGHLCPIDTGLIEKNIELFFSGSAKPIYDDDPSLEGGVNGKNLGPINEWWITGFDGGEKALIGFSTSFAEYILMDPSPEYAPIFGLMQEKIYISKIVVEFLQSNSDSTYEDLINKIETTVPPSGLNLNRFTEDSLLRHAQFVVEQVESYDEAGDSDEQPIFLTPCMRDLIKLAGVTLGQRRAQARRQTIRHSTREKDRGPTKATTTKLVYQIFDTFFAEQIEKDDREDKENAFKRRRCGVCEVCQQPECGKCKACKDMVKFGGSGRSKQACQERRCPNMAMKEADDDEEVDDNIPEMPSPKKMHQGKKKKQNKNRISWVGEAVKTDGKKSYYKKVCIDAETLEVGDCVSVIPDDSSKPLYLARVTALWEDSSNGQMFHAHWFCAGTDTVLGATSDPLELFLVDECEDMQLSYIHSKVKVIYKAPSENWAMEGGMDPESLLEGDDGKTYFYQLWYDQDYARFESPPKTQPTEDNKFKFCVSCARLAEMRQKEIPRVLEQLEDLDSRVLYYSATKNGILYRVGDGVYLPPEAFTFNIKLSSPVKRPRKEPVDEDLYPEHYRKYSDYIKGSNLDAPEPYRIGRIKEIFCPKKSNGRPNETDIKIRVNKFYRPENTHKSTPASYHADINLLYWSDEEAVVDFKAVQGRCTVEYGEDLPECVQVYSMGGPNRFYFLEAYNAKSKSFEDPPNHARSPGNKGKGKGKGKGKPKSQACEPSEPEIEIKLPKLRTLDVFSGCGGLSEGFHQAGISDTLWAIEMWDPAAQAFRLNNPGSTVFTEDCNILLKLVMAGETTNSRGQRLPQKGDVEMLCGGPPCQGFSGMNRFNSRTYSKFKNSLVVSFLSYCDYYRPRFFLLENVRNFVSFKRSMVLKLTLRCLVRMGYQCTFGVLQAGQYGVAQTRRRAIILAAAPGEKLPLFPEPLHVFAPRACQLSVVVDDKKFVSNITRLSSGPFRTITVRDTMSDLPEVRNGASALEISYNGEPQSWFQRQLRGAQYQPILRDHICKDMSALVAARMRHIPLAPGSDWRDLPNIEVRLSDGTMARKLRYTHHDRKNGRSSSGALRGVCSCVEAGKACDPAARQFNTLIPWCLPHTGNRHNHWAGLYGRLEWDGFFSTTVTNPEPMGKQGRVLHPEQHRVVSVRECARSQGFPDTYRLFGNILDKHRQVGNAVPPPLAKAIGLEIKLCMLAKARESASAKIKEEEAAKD

[24] = target: Protein disulfide-isomerase (Homo sapiens, UniProt P07237); experiment: inhibition of PDI-driven insulin aggregation – biochemical, turbidity, absorbance, cherry-picked samples, dose response (AID 602350); type: functional
Sequence of Protein disulfide-isomerase (P07237 whole entry): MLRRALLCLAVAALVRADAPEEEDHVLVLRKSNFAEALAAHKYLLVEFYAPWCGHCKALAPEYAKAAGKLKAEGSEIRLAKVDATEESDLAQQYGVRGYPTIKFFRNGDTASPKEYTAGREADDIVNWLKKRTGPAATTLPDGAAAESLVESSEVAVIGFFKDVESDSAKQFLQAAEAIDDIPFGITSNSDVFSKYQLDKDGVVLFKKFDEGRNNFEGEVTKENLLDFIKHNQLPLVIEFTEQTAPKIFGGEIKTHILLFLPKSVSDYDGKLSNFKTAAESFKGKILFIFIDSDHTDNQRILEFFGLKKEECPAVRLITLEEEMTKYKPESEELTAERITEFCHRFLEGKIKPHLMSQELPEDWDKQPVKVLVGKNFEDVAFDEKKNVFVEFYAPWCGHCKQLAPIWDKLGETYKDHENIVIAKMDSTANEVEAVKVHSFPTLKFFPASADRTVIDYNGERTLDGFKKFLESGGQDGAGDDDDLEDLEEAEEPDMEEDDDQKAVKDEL

[25] = target: ELAV-like protein 1 (Homo sapiens, UniProt Q15717); experiment: Identify HuR specific inhibitors.; type: functional
[26] = target: T4, RNA-binding protein pos-1 (Caenorhabditis elegans, UniProt G5EF15); experiment: disruptors of C. elegans POS-1 RNA interaction – biochemical, fluorescence polarization, dose response (AID 1964);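 note: purified POS-1 fused to maltose binding protein made in E. coli; potency of compounds blocking POS-1 binding to fluorescent RNA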
T4 sequence (G5EF15 whole entry): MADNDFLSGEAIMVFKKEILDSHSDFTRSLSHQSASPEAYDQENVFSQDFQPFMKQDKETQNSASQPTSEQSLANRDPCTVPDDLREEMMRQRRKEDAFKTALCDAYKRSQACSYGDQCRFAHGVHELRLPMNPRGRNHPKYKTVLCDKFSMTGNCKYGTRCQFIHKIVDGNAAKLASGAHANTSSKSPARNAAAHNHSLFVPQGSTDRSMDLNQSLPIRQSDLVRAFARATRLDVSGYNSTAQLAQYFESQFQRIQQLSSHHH

[27] = target: T5, Zinc finger protein mex-5 (Caenorhabditis elegans, UniProt Q9XUB2); experiment: potency of MEX-5 RNA-binding blockers – biochemical, C. elegans, fluorescence polarization, dose response (AID 1960)
T5 sequence (Q9XUB2 whole entry): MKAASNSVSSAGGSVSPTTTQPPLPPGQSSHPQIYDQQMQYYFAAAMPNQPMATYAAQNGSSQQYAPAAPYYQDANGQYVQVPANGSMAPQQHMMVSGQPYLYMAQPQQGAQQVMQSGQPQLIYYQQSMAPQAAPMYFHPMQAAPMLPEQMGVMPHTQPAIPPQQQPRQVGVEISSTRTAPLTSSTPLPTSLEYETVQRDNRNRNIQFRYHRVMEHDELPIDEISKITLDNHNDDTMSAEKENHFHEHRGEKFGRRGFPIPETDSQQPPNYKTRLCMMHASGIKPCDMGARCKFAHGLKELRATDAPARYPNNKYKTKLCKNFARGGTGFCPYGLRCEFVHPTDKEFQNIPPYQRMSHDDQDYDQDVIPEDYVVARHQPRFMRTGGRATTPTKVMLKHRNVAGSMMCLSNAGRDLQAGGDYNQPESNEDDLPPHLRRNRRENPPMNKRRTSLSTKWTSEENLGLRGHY

[28] = target: Bifunctional protein GlmU (Mycobacterium tuberculosis, UniProt P9WMN3); experiment: Inhibitors of Mycobacterial Glucosamine-1-phosphate acetyl transferase (GlmU). Secondary screen.; parameters: species or system Mycobacterium tuberculosis H37Rv
Sequence of Bifunctional protein GlmU (P9WMN3 whole entry): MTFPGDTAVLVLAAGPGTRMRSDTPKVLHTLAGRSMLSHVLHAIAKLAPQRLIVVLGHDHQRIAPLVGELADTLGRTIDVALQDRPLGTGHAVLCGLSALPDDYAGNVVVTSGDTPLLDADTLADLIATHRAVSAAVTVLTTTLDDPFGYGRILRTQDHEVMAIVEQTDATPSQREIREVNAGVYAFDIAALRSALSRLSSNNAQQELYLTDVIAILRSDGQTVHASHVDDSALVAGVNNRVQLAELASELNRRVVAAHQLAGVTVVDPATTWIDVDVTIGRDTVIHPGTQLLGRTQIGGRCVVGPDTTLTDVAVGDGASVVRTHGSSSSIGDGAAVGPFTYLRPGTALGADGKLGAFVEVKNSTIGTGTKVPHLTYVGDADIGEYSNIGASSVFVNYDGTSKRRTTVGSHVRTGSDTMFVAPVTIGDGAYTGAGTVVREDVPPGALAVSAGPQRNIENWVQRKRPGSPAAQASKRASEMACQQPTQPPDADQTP

[29] = target: Induced myeloid leukemia cell differentiation protein Mcl-1 (Homo sapiens, UniProt Q07820); type: functional
Sequence of Induced myeloid leukemia cell differentiation protein Mcl-1 (Q07820 whole entry): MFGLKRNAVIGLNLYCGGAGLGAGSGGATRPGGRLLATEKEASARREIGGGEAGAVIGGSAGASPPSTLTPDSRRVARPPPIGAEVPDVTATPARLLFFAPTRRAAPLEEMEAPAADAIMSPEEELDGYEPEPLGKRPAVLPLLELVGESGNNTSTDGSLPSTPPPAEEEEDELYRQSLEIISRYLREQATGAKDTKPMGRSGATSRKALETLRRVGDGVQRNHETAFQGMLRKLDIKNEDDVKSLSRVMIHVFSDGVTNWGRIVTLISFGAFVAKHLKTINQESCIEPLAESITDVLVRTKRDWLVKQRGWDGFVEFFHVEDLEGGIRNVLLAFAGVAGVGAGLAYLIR

[30] = system: Vero; experiment: viability of Vero cells under compound – cytotoxicity control for flavivirus capping enzyme inhibitors (AID 588742); type: functional; conditions: Chlorocebus sabaeus
[31] = target: Genome polyprotein (dengue virus type 2, UniProt P29990); experiment: flavivirus cap methylation enzyme inhibition – biochemical, confirmation dose response, primary screen (AID 588689); type: functional
[32] = target: T6, Caspase-6 (Homo sapiens, UniProt P55212); experiment: inhibition of CASP6 peptide cleavage – biochemical, VEID-R110 fluorescence, cherry-pick, dose response (AID 720632)
T6 sequence (P55212 whole entry): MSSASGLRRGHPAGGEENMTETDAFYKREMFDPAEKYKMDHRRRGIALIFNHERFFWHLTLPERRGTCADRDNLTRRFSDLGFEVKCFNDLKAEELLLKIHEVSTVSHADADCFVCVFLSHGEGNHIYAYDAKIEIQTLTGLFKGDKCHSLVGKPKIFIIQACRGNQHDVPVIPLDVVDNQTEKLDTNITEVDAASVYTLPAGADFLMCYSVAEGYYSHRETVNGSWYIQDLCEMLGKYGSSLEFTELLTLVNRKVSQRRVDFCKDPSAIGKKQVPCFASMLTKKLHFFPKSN

[33] = toxicity toward immortalized ovarian surface epithelium – cell-based, plate reader, dry powder samples, cytotoxicity control for PAX8 inhibitor project, dose response (AID 743045); type: functional
[34] = A2780 cell killing – plate reader, dry powder samples, cytotoxicity control, dose response (AID 743046); type: functional, cell-based
[35] = OVCAR-3 cell viability loss – plate reader, dry powder samples, PAX8 inhibitor project, dose response (AID 743044); type: functional, cell-based
[36] = OVCAR8 cell viability loss – plate reader, dry powder samples, PAX8 project, dose response (AID 743197); type: functional, cell-based; conditions: OVCAR-8

SMILES: COc1ccc(CCNC(=O)COC(=O)c2cnc(C)cn2)cc1OC
- EC50 [1]: 0.17 µM (not active)

SMILES: Cn1c(Cn2c(=O)sc3ccccc32)nnc1SCC(=O)NCc1ccc(F)cc1
- CC50 [2]: > 40 µM (active)

SMILES: Cc1ccc(NC(=O)Cn2cccc2)c(C)c1
- IC50 [3]: > 109 µM (inactive)
- IC50 [4]: > 83.4 µM (inactive)

SMILES: Cc1c(NS(=O)(=O)c2ccc(NC3CCCC3)c([N+](=O)[O-])c2)c(=O)n(-c2ccccc2)n1C
- EC50 [5]: > 167 µM (inactive)

SMILES: O=C1C(/C=N/c2ccccc2)=C(O)c2ccccc21
- EC50 [6]: > 67.5 µM (inactive)
- EC50 [7]: > 67.5 µM (inactive)

SMILES: O=C(/C=C/c1ccc(F)cc1)N1CCN(S(=O)(=O)c2cccc(F)c2)CC1
- IC50 [8]: 0.0196 µM (active)

SMILES: CCC/C(=N\c1ccc(N)cc1)C1=C(O)C(C(=O)OC)C(C)(C)CC1=O (stereo unspecified)
- IC50 [9]: 9.5 µM (active)
- IC50 [10]: > 83.3 µM (inactive)
- IC50 [11]: > 83.3 µM (inactive)

SMILES: COc1cc(OC)cc(C(=O)NNC(=O)c2ccccc2Br)c1
- IC50 [12]: > 50 µM (not active)
- IC50 [13]: > 100 µM (active)

SMILES: CCOC(=O)c1c(NC(=O)CNCCN(C)C)sc(C)c1-c1ccccc1
- AC50 [14]: 7.22 µM (active)
- AC50 [15]: > 52 µM (inactive)

SMILES: CC(CNc1ccc(Cl)cc1)(CNc1ccc(Cl)cc1)[N+](=O)[O-]
- AC50 [16]: > 52 µM (inactive)

SMILES: CC(=O)Nc1sc2c(c1-c1nc3ccccc3s1)CN(C(C)C)C2
- IC50 [17]: > 43.8 µM (inactive)

SMILES: CCC(=O)c1ccc2c(c1)N(CCCN(C)C)c1ccccc1S2 [PROPIONYLPROMAZINE HYDROCHLORIDE]
- AC50 [18]: 31.4 µM (active)
- IC50 [19]: 10.7 µM (inactive)
- IC50 [20]: > 33.3 µM (inactive)

SMILES: COc1ccc(C(=O)NC2=C(c3ccccc3)C(=O)c3ccccc3C2=O)cc1
- AC50 [21]: 40.6 µM (active)
- AC50 [22]: 20.9 µM (active)

SMILES: COC(=O)CC1OCC=C2CN3CCC45C6=CC(=O)C(=O)C([N+](=O)[O-])=C6NC4C1C2CC35 (stereo unspecified)
- IC50 [23]: 6.06 µM (active)
- AC50 [24]: 8.03 µM (active)
- IC50 [25]: 69.6 µM (inactive)

SMILES: O=c1ccc2[n+]([O-])c3ccc(O)cc3oc-2c1
- EC50 [26]: > 300 µM (not active)
- EC50 [27]: 37.7 µM (active)
- IC50 [28]: 59.4 µM (active)
- IC50 [29]: 10.1 µM (not active)
- CC50 [30]: > 40 µM (active)
- IC50 [31]: 1.61 µM (active)
- AC50 [32]: 0.285 µM (active)

SMILES: O=C(Nc1ccccc1)N1CCCCN2[C@@H](CO)[C@@H](c3ccc(C#Cc4ccccc4)cc3)[C@@H]2C1
- AC50 [33]: 19.3 µM (active)
- AC50 [34]: 13.7 µM (active)
- AC50 [35]: 7.13 µM (active)
- AC50 [36]: 17.5 µM (active)
